Measured values taken from PMC6149664, “Synthesis and In Vitro Antimycobacterial Activity of Novel N-Arylpiperazines Containing an Ethane-1,2-diyl Connecting Chain” (Molecules : A Journal of Synthetic Chemistry and Natural …, 2017).
Like-named read-outs stand apart in the source and are kept apart here.

Experiments:
[1] = Isocratic RP-HPLC lipophilicity (k, log k, extrapolated log kw, slope S), MeOH/water mobile phases; assay type: physicochemical; details: for log kw (RP-HPLC): extrapolated to 100% water from log k vs ϕM (MeOH); for S, slope (RP-HPLC): slope of regression log k vs ϕM, alternative measure of lipophilicity
Text: Octadecyl-functionalized silica gel was used as a stationary phase in the RP-HPLC evaluation of 8a–h. A gradient of two solvents at different volume ratios modulated retention properties of a stationary phase. Liquid binary mixtures of methanol (MeOH) with water were employed as mobile phases in a present isocratic RP-HPLC method. The MeOH organic modifier was preferred because of making a reversed-phase chromatographic system closer to the octan-1-ol/water partitioning one in terms of sensitivity to H-bond donor properties of investigated compounds [39, 40]. The modifier was applied in different volume concentrations that varied from 60% to 85% (v/v).
The chromatographic HPLC-Diode Array Detection apparatus for the determination of capacity (retention) factor k (log k) values was the LC Agilent Infinity System (Agilent Technologies, Santa Clara, CA, USA) equipped with a Infinity 1260 gradient pump with a degasser, a 1260 HiPals automatic injector, a column thermostat 1290, a photo-diode array detector Infinity 1290 (all the equipments were obtained by Agilent Technologies) and personal computer with the Agilent ChemStation software (Agilent Technologies) for the registration of values and calibration procedures. The chromatographic column Eclipse plus RP C18, 150 × 4.6 mm i.d., a 5 μm particle size (Agilent Technologies), was used and thermostated at 35 °C.
The analyses were performed at pressure ranged from 7 MPa to 15 MPa. The detection wavelength was set to 260 nm, injection sample volume was 5 μL with a flow rate of 1.0 mL/min in all RP-HPLC analyses.
LC-MS Methanol (J. T. Baker Chemicals Co., Phillipsburg, NJ, USA) and HPLC-quality water (Sigma-Aldrich, Darmstadt, Germany) were used for a preparation of mobile phases. Water was firstly deionized and purified by the Millipore Simplicity 185 Ultrapure water purification system (Millipore, Billerica, MA, USA).
Methanol (MeOH)/water mobile phases with a various volume ratio of the organic modifier and water (60:40, 70:30, 80:20 and 85:15, respectively; v/v) were chosen. A concentration of all analyzed compounds 8a–h was c = 0.25 mg/mL. An queous solution of potassium nitrate (c = 0.1 M) was used for the determination of dead time t0 = 1.295 min. The capacity (retention) factor k values (Table 1) were calculated by Equation (6) as follows:k = (tr – t0)/t0(6) where the tr and t0 parameters were the retention times of a solute (tr) and unretained compound (potassium nitrate; t0), respectively. The observed retention (tr) and dead (t0) times were means of three independent determinations.
The log kw values, i.e., the logarithms of extrapolated capacity (retention) factors for 100% water in the isocratic RP-HPLC, were determined from intercepts of linear plots between the log k and ϕM (a volume fraction of an organic modifier in the isocratic elution RP-HPLC) according to Equation (7): log k = log kw – S × ϕM(7) where the S parameter represented the slope of a regression curve, which was related to the solvent strength of a pure organic solvent.

[2] = UV/Vis spectra of methanolic solutions (log ε); assay type: physicochemical; details: methanolic solution c = 3.0 × 10^−5 M; for log ε2(Ch-T): charge-transfer maximum λ2(Ch-T) = 238–240 nm; for log ε1: λ1 = 208–210 nm; for log ε3: λ3 = 274–276 nm
Text: Electronic properties of the inspected compounds 8a–h (Table 3) were characterized by logarithms of molar absorption coefficients (log ε) of their methanolic solutions (c = 3.0 × 10^−5 M) investigated in the UV/Vis region of the spectrum.
The UV/Vis spectra of methanolic solutions of the analyzed compounds 8a–h (c = 3.0 × 10^−5 M) were estimated on the 8452A Diode Array spectrophotometer HP-8452A (Hewlett Packard, Palo Alto, CA, USA). Methanol for UV-spectroscopy (Merck) was used for the preparation of these solutions.
Results of the UV/Vis analyses were collected and stored digitally using the ChemStation controller software (Agilent Technologies, Waldbronn, Germany). The HP-8452A apparatus measured a complete range of a spectrum from 190 nm to 820 nm.
The log ε values characterizing methanolic solutions of the analyzed compounds 8a–h (c = 3.0 × 10^−5 M) were estimated at λ1 = 208–210 nm, λ2(Ch-T) = 238–240 nm and λ3 = 274–276 nm (Table 3), respectively, in a near ultraviolet (quarz) region of the electromagnetic spectrum between 200 and 400 nm. The log ε values for the observed absorption maxima were calculated according to the Lambert-Beer´s law discussed in [47], for example, and expressed by Equation (8):A = ε × c × l(8) where the A parameter represented the absorbance of a solution, the descriptor ε was a molar absorption coefficient (in the L/mol/cm units) and l was the path length (in the cm units).

[3] = test system: M. tuberculosis CNCTC My 331/88 (identical with H37Rv and ATCC 2794); assay: In vitro antimycobacterial MIC, dilution-micromethod in Šula semisynthetic medium; assay type: cell-based; details: Mycobacterium tuberculosis, read-out: MIC, MT My 331/88
[4] = test system: M. kansasii 6 509/96 clinical isolate; assay: as above; assay type: cell-based; details: Mycobacterium kansasii, read-out: MIC, MK 6 509/96
M. kansasii CIT11/06 = assay: In vitro antimycobacterial MIC (IC90), alamarBlue 96-well assay in Middlebrook broth; assay type: cell-based, Mycobacterium kansasii; details: Mycobacterium kansasii, CIT11/06, 168 h, 7 days incubation, read-out: MIC, MK CIT11/06
[5] = test system: M. avium subsp. paratuberculosis CIT03; assay: microbe, parasite or virus in culture; assay type: cell-based; details: Mycobacterium avium, 168 h; 7 days incubation, alamarBlue; MIC = IC90; read-out: MIC, MAP CIT03
[6] = test system: M. avium intracellulare ATCC 13950; assay: In vitro antimycobacterial MIC (IC90), alamarBlue 96-well assay in Middlebrook broth; assay type: cell-based, Mycobacterium avium intracellulare; details: Mycobacterium avium, ATCC13950, 168 h, 7 days incubation, read-out: MIC, MAI ATCC 13950
[7] = test system: M. avium hominissuis CIT10/08; assay: as above; assay type: cell-based, Mycobacterium avium hominissuis; details: Mycobacterium avium, 168 h, 7 days incubation, read-out: MIC, MAH CIT10/08
[8] = mobile phase MeOH/water 60:40 (v/v)
[9] = mobile phase MeOH/water 70:30 (v/v)
[10] = mobile phase MeOH/water 80:20 (v/v)
[11] = mobile phase MeOH/water 85:15 (v/v)

Compound | capacity factor k (RP-HPLC) ([1]; MeOH/water 60:40 (v/v)) | capacity factor k (RP-HPLC) ([1]; MeOH/water 70:30 (v/v)) | capacity factor k (RP-HPLC) ([1]; MeOH/water 80:20 (v/v)) | capacity factor k (RP-HPLC) ([1]; MeOH/water 85:15 (v/v)) | log kw (RP-HPLC) [1] | log k (RP-HPLC) [1, 8] | log k (RP-HPLC) [1, 9] | log k (RP-HPLC) [1, 10] | log k (RP-HPLC) [1, 11] | S, slope (RP-HPLC) [1] | log ε2(Ch-T) [2] | log ε1 [2] | log ε3 [2] | MIC ([3]; 336 h, 14 d cultivation) | MIC ([3]; 504 h, 21 d cultivation) | MIC ([4]; 336 h, 14 d cultivation) | MIC ([4]; 504 h, 21 d cultivation) | MIC (M. kansasii CIT11/06) | MIC [5] | MIC [6] | further results
CCCOC(=O)Nc1ccc(C(O)CN2CCN(c3ccccc3F)CC2)cc1.Cl (centres unmarked) [8g, 1-(2-Hydroxy-2-{4-[(propoxycarbonyl)amino]phenyl}ethyl)-4-(2-fluorophenyl)piperazin-1-ium chloride] | 5.394 | 3.108 | 1.342 | 0.956 | 2.600 | 0.732 | 0.492 | 0.128 | −0.020 | 3.0739 | 4.54 | 4.47 | 3.52 | 16 µM | 16 µM | > 250 µM | > 250 µM | > 571 µM | > 571 µM | > 71 µM | MIC ([4]; 168 h, 7 d cultivation): 125 µM; MIC [7]: > 571 µM
CCOC(=O)Nc1ccc(C(O)CN2CCN(c3ccccc3F)CC2)cc1.Cl (centres unmarked) [8f, 1-(2-{4-[(Ethoxycarbonyl)amino]phenyl}-2-hydroxyethyl)-4-(2-fluorophenyl)piperazin-1-ium chloride] | 4.524 | 2.053 | 1.023 | 0.757 | 2.512 | 0.656 | 0.312 | 0.010 | −0.121 | 3.1156 | 4.60 | 4.59 | 3.60 | 32 µM | 62.5 µM | > 125 µM | > 125 µM | 295 µM | > 590 µM | > 590 µM | MIC ([4]; 168 h): 62.5 µM; MIC [7]: > 590 µM
